The values below come from patent US10454124B2, “Highly stable phenazine derivatives for aqueous redox flow batteries” (Battelle Memorial Institute, priority 2017, dated 2019).

Structures are written as SMILES. Converted amounts (≈) assume the structure as drawn.

Broadly, the solubility is the concentration that dissolves in the medium under given conditions. A lower solubility goes with a poorly soluble substance.

The conditions of series [1]: cited from earlier work.
Series [2] can be described thus: Solubility limit in 1 M NaOH. Format: physicochemical. The conditions noted are these: aqueous buffer. The source says: In one embodiment, the phenazine derivative is present in the electrolyte at a concentration within a range of 0.01 M to 4 M. In an independent embodiment, the phenazine derivative is present in the electrolyte at a concentration within a range of from 4 M to 8 M. Certain embodiments of the phenazine derivatives provide 2 moles of electron transfer per mole of the compound, thus providing, for example, 2 M electron transfer when the phenazine derivative concentration is 1 M.

Series [3] is described as follows: Cyclic voltammetry in 1 M NaOH. The conditions noted are these: scan rate 100 mV/sec, 8.5 mM. Format: physicochemical. As for the experimental part:
Electrochemical Methods: Cyclic voltammetry experiments were performed with a CH Instruments model 660C potentiostat using a glassy carbon working electrode, a platinum wire counter electrode, and a Ag/AgCl reference electrode.
[…]. This potential exceeds all other aqueous organic flow battery systems reported to date, which, combining the high effective electron concentration resulted from high solubility, leads to high theoretical energy densities.

On to `c1ccc2nc3ccccc3nc2c1` [phenazine], for which the solubility in water entry in series [1] is “insoluble in water”. In series [2], `O=S(=O)(O)c1ccc2nc3cc(O)c(O)cc3nc2c1` [DHPS, 7,8-dihydroxy-phenazine-2-sulfonic acid] showed a solubility of 1450 mM (≈ 424 mg/mL). Besides, the “redox couple (vs. Ag/AgCl)” value in series [3] was −1.08 V.
